Measured values: BindingDB's records for patent US20230391758 (Merck Sharp & Dohme, 2023)

Target: T1, Ceramide glucosyltransferase (Homo sapiens, UniProt Q16739)
T1 sequence (Q16739 whole entry): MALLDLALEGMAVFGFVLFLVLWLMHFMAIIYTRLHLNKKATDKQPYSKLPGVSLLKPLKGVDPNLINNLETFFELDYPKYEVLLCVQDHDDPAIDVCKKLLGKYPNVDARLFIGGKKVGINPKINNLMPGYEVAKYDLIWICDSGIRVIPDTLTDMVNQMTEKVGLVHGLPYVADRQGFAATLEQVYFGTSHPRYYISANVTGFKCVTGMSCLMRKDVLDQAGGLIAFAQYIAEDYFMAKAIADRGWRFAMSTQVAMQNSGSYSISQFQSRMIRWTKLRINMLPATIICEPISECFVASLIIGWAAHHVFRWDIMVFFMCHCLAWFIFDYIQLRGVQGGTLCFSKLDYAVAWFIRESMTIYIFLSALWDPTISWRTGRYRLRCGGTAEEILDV
Assay: UDP-Glo Glucosylceramide Synthase Biochemical Assay
Description: Using Promega's UDP-Glo™ Glycosyltransferase assay kit (Promega Corporation, Madison, WI, USA (Promega)), GCS activity was indirectly measured by detecting the amount of UDP produced. An aliquot of GCS enzyme (1.5 μg crude golgi preparation, total protein) and titrated test compound were aliquoted to each well and incubated for 30 minutes at room temperature. Substrate mixture was prepared by mixing C6 ceramide (Avanti Polar Lipids, Alabaster, AL USA (Avanti)) (micelles prepared at 0.6 mM in 0.6 mM DOPC) and UDP-glucose (20 μ.M; Promega), at concentrations equivalent to 2×Km, in assay buffer (25 mM HEPES (pH 7.5), 50 mM KCl, 5 mM MgCl2). An equivalent volume of substrate mixture was then added to each well. Following a 20 h incubation at room temperature to allow for GCS turnover of substrate, an equal volume of UDP detection reagent (Promega) was added to each well and incubated for an additional 75 minutes at room temperature to simultaneously convert the accumulated UDP product into ATP and generate light in a luciferase reaction.

In the case of `CCCOc1ccccc1-c1cccc2cc(C(=O)Nc3cccnc3)oc12` [US20230391758, Compound 10], the EC50 is reported as 1.8 nM.
